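Dose response: 5 concentrations. Exposure: 48 h. Format: 96-well plates. Endpoint: linear interpolation; highest concentration if not reached. The concentration for 50% growth inhibition is given as GI50.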 Activity calls are given as the source filed them. No stated cut-off is given here; in the data, active = GI50 up to about 1.1 µM and inactive = higher.
Assays:
Test in all cases: NCI anticancer screen, dose series, 48 h
SK-MEL-28 = test system: SK-MEL-28
K562 = test system: K562
BT-549 = test system: BT-549
UO-31 = test system: UO-31
RXF 393 = test system: RXF 393
HCT-116 = test system: HCT-116
OVCAR-4 = test system: OVCAR-4
LOX IMVI = test system: LOX IMVI
NCI-H23 = test system: NCI-H23
DU-145 = test system: DU-145
HL-60 = test system: HL-60
Malme-3M = test system: Malme-3M
SN12C = test system: SN12C
MDA-MB-435 = test system: MDA-MB-435
SR = test system: SR
SK-MEL-5 = test system: SK-MEL-5
NCI-H460 = test system: NCI-H460
SNB-75 = test system: SNB-75
UACC-257 = test system: UACC-257
PC-3 = test system: PC-3
MDA-MB-231 = test system: MDA-MB-231
SK-OV-3 = test system: SK-OV-3
Hs-578T = test system: Hs-578T
OVCAR-8 = test system: OVCAR-8
OVCAR-5 = test system: OVCAR-5
MDA-N = test system: MDA-N
NCI-H226 = test system: NCI-H226
UACC-62 = test system: UACC-62
HOP-62 = test system: HOP-62
A549 = test system: A549
CAKI-1 = test system: CAKI-1
SF-268 = test system: SF-268
HCC 2998 = test system: HCC 2998
COLO 205 = test system: COLO 205
T47D = test system: T47D
SF-539 = test system: SF-539
U-251 = test system: U-251
NCI/ADR-RES = test system: NCI/ADR-RES
MOLT-4 = test system: MOLT-4
RPMI-8226 = test system: RPMI-8226
SNB-19 = test system: SNB-19
A498 = test system: A498
SF-295 = test system: SF-295
IGROV-1 = test system: IGROV-1
M14 = test system: M14
CCRF-CEM = test system: CCRF-CEM
ACHN = test system: ACHN
MCF7 = test system: MCF7
OVCAR-3 = test system: OVCAR-3
SK-MEL-2 = test system: SK-MEL-2
HOP-92 = test system: HOP-92
EKVX = test system: EKVX
SW-620 = test system: SW-620
TK-10 = test system: TK-10
786-0 = test system: 786-0
NCI-H522 = test system: NCI-H522
HCT-15 = test system: HCT-15
KM12 = test system: KM12
HT-29 = test system: HT-29

C=C(C)C(=O)OC1CC2(C)OC2CC(OC(C)=O)/C(C)=C/C2OC(=O)C(=C)C21 (stereo not drawn)
GI50 (SK-MEL-28): 724 nM (active) | GI50 (K562): 560 nM (active) | GI50 (BT-549): 1090 nM (active) | GI50 (UO-31): 2680 nM (inactive) | GI50 (RXF 393): 2040 nM (inactive) | GI50 (HCT-116): 1700 nM (inactive) | GI50 (OVCAR-4): 9480 nM (inactive) | GI50 (LOX IMVI): 2730 nM (inactive) | GI50 (NCI-H23): 2760 nM (inactive) | GI50 (DU-145): 2130 nM (inactive) | GI50 (HL-60): 207 nM (active) | GI50 (Malme-3M): 573 nM (active) | GI50 (SN12C): 2520 nM (inactive) | GI50 (MDA-MB-435): 1180 nM (inactive) | GI50 (SR): 1080 nM (active) | GI50 (SK-MEL-5): 8200 nM (inactive) | GI50 (NCI-H460): 1730 nM (inactive) | GI50 (SNB-75): 15500 nM (inactive) | GI50 (UACC-257): 6500 nM (inactive) | GI50 (PC-3): 9080 nM (inactive) | GI50 (MDA-MB-231): 6490 nM (inactive) | GI50 (SK-OV-3): 29000 nM (inactive) | GI50 (Hs-578T): 2300 nM (inactive) | GI50 (OVCAR-8): 2030 nM (inactive) | GI50 (OVCAR-5): 5830 nM (inactive) | GI50 (MDA-N): 2730 nM (inactive) | GI50 (NCI-H226): 17600 nM (inactive) | GI50 (UACC-62): 4570 nM (inactive) | GI50 (HOP-62): 13100 nM (inactive) | GI50 (A549): 19000 nM (inactive) | GI50 (CAKI-1): 2530 nM (inactive) | GI50 (SF-268): 2120 nM (inactive) | GI50 (HCC 2998): 6340 nM (inactive) | GI50 (COLO 205): 1520 nM (inactive) | GI50 (T47D): 3480 nM (inactive) | GI50 (SF-539): 2820 nM (inactive) | GI50 (U-251): 12500 nM (inactive) | GI50 (NCI/ADR-RES): 2680 nM (inactive) | GI50 (MOLT-4): 441 nM (active) | GI50 (RPMI-8226): 349 nM (active) | GI50 (SNB-19): 15200 nM (inactive) | GI50 (A498): 12900 nM (inactive) | GI50 (SF-295): 16200 nM (inactive) | GI50 (IGROV-1): 4170 nM (inactive) | GI50 (M14): 3010 nM (inactive) | GI50 (CCRF-CEM): 89.5 nM (active) | GI50 (ACHN): 1490 nM (inactive) | GI50 (MCF7): 2330 nM (inactive) | GI50 (OVCAR-3): 2260 nM (inactive) | GI50 (SK-MEL-2): 5370 nM (inactive) | GI50 (HOP-92): 3640 nM (inactive) | GI50 (EKVX): 3100 nM (inactive) | GI50 (SW-620): 426 nM (active) | GI50 (TK-10): 3450 nM (inactive) | GI50 (786-0): 2220 nM (inactive) | GI50 (NCI-H522): 124 nM (active) | GI50 (HCT-15): 566 nM | GI50 (KM12): 11200 nM (inactive) | GI50 (HT-29): 1310 nM (inactive)

[N-]=[N+]=Nc1c([N+](=O)[O-])c(Cl)nc2ccccc12
GI50 (SK-MEL-28): 2480 nM (inactive) | GI50 (K562): 463 nM (active) | GI50 (BT-549): 1740 nM (inactive) | GI50 (UO-31): 632 nM (active) | GI50 (RXF 393): 1860 nM (inactive) | GI50 (HCT-116): 1630 nM (inactive) | GI50 (OVCAR-4): 1900 nM (inactive) | GI50 (LOX IMVI): 1590 nM (inactive) | GI50 (NCI-H23): 2600 nM (inactive) | GI50 (DU-145): 2130 nM (inactive) | GI50 (HL-60): 119 nM (active) | GI50 (Malme-3M): 1690 nM (inactive) | GI50 (SN12C): 2230 nM (inactive) | GI50 (MDA-MB-435): 2380 nM (inactive) | GI50 (SR): 604 nM (active) | GI50 (SK-MEL-5): 8990 nM (inactive) | GI50 (NCI-H460): 10800 nM (inactive) | GI50 (SNB-75): 8930 nM (inactive) | GI50 (UACC-257): 1690 nM (inactive) | GI50 (PC-3): 1910 nM (inactive) | GI50 (MDA-MB-231): 1850 nM (inactive) | GI50 (SK-OV-3): 14500 nM (inactive) | GI50 (Hs-578T): 3120 nM (inactive) | GI50 (OVCAR-8): 1870 nM (inactive) | GI50 (OVCAR-5): 2440 nM (inactive) | GI50 (MDA-N): 2380 nM (inactive) | GI50 (NCI-H226): 10600 nM (inactive) | GI50 (UACC-62): 4370 nM (inactive) | GI50 (HOP-62): 19800 nM (inactive) | GI50 (A549): 16800 nM (inactive) | GI50 (CAKI-1): 971 nM (active) | GI50 (SF-268): 3470 nM (inactive) | GI50 (HCC 2998): 1980 nM (inactive) | GI50 (COLO 205): 1740 nM (inactive) | GI50 (T47D): 2070 nM (inactive) | GI50 (SF-539): 3920 nM (inactive) | GI50 (U-251): 5960 nM (inactive) | GI50 (NCI/ADR-RES): 2560 nM (inactive) | GI50 (MOLT-4): 587 nM (active) | GI50 (RPMI-8226): 1770 nM (inactive) | GI50 (SNB-19): 14400 nM (inactive) | GI50 (A498): 13700 nM (inactive) | GI50 (SF-295): 19400 nM (inactive) | GI50 (IGROV-1): 2090 nM (inactive) | GI50 (M14): 1440 nM (inactive) | GI50 (CCRF-CEM): 376 nM (active) | GI50 (ACHN): 1760 nM (inactive) | GI50 (MCF7): 1540 nM (inactive) | GI50 (OVCAR-3): 1410 nM (inactive) | GI50 (SK-MEL-2): 1400 nM (inactive) | GI50 (HOP-92): 1950 nM (inactive) | GI50 (EKVX): 3010 nM (inactive) | GI50 (SW-620): 480 nM (active) | GI50 (TK-10): 2250 nM (inactive) | GI50 (786-0): 541 nM (active) | GI50 (NCI-H522): 293 nM (active) | GI50 (HCT-15): 1830 nM | GI50 (KM12): 7160 nM (inactive) | GI50 (HT-29): 2180 nM (inactive)
